Data: the supplement of paper PMC10307832

Experiments:
Assay in all cases: relative viability (nuclei count vs DMSO), 5 days (fraction); higher = more cells survive
BEN = tested on: BEN
Summary of the method: (§1)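 After 5 days of treatment, lung cancer cells in 1536-well plates were fixed and stained in a single step (final 0.05% Triton X-100, 1% formaldehyde, 1 ug/ml Hoechst) and their nuclei counted on 4× images. Treatment had been applied by pin tool the day after seeding as one drug alone or as a fixed anchor-drug dose with five library-drug doses (not always all listed) in √10 steps. Relative viability is the nuclei count of treated wells divided by that of vehicle wells, and values are medians of duplicate plates.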

CAL-12T = tested on: CAL-12T
Summary of the method: as §1

COR-L 105 = tested on: COR-L 105
Summary of the method: as §1

COR-L23 = tested on: COR-L23
Summary of the method: as §1

HARA = tested on: HARA
Summary of the method: as §1

HCC-15 = tested on: HCC-15
Summary of the method: as §1

HCC-366 = tested on: HCC-366
Summary of the method: as §1

HCC-44 = tested on: HCC-44
Summary of the method: as §1

HCC-827 = tested on: HCC-827
Summary of the method: as §1

HOP-62 = tested on: HOP-62
Summary of the method: as §1

LC-2-ad = tested on: LC-2-ad
Summary of the method: as §1

LCLC-97TM1 = tested on: LCLC-97TM1
Summary of the method: as §1

LU99A = tested on: LU99A
Summary of the method: as §1

LXF-289 = tested on: LXF-289
Summary of the method: as §1

NCI-H1993 = tested on: NCI-H1993
Summary of the method: as §1

NCI-H2009 = tested on: NCI-H2009
Summary of the method: as §1

NCI-H2087 = tested on: NCI-H2087
Summary of the method: as §1

NCI-H2126 = tested on: NCI-H2126
Summary of the method: as §1

NCI-H2170 = tested on: NCI-H2170
Summary of the method: as §1

NCI-H727 = tested on: NCI-H727
Summary of the method: as §1

PC-14 = tested on: PC-14
Summary of the method: as §1

PC-3 [JPC-3] = tested on: PC-3 [JPC-3]
Summary of the method: as §1

SK-MES-1 = tested on: SK-MES-1
Summary of the method: as §1

O=C(O)CCCCC(CCSCc1ccccc1)SCc1ccccc1 (centres undefined) [CPI-613] + COc1cccc2cc(-c3nc([C@H]4CC[C@H](C(=O)O)CC4)n4ncnc(N)c34)[nH]c12 [OSI-027] (partner 0.5 µM)
relative viability (BEN; first compound 5 µM): 0.289
relative viability (BEN; first compound 15.81 µM): 0.298
relative viability (BEN; first compound 50 µM): 0.304
relative viability (BEN; first compound 158.11 µM): 0.265
relative viability (BEN; first compound 500 µM): 0.28
relative viability (CAL-12T; first compound 5 µM): 0.739
relative viability (CAL-12T; first compound 15.81 µM): 0.515
relative viability (CAL-12T; first compound 50 µM): 0.593
relative viability (CAL-12T; first compound 158.11 µM): 0.0379
relative viability (CAL-12T; first compound 500 µM): 0.0106
relative viability (COR-L 105; first compound 5 µM): 0.605
relative viability (COR-L 105; first compound 15.81 µM): 0.407
relative viability (COR-L 105; first compound 50 µM): 0.49
relative viability (COR-L 105; first compound 158.11 µM): 0.319
relative viability (COR-L 105; first compound 500 µM): 0.105
relative viability (COR-L23; first compound 5 µM): 0.738
relative viability (COR-L23; first compound 15.81 µM): 0.584
relative viability (COR-L23; first compound 50 µM): 0.562
relative viability (COR-L23; first compound 158.11 µM): 0.169
relative viability (COR-L23; first compound 500 µM): 0.0278
relative viability (HARA; first compound 15.81 µM): 0.482
relative viability (HARA; first compound 50 µM): 0.387
relative viability (HARA; first compound 158.11 µM): 0.188
relative viability (HARA; first compound 500 µM): 0.0367
relative viability (HCC-15; first compound 5 µM): 0.552
relative viability (HCC-15; first compound 15.81 µM): 0.602
relative viability (HCC-15; first compound 50 µM): 0.586
relative viability (HCC-15; first compound 158.11 µM): 0.364
relative viability (HCC-15; first compound 500 µM): 0.0388
relative viability (HCC-366; first compound 5 µM): 0.924
relative viability (HCC-366; first compound 15.81 µM): 0.787
relative viability (HCC-366; first compound 50 µM): 1.08
relative viability (HCC-366; first compound 158.11 µM): 0.244
relative viability (HCC-366; first compound 500 µM): 0.0116
relative viability (HCC-44; first compound 5 µM): 0.432
relative viability (HCC-44; first compound 15.81 µM): 0.405
relative viability (HCC-44; first compound 50 µM): 0.501
relative viability (HCC-44; first compound 158.11 µM): 0.489
relative viability (HCC-44; first compound 500 µM): 0.0788
relative viability (HCC-827; first compound 5 µM): 0.745
relative viability (HCC-827; first compound 15.81 µM): 0.717
relative viability (HCC-827; first compound 50 µM): 0.673
relative viability (HCC-827; first compound 158.11 µM): 0.431
relative viability (HCC-827; first compound 500 µM): 0.48
relative viability (HOP-62; first compound 5 µM): 0.74
relative viability (HOP-62; first compound 15.81 µM): 0.759
relative viability (HOP-62; first compound 50 µM): 0.799
relative viability (HOP-62; first compound 158.11 µM): 0.477
relative viability (HOP-62; first compound 500 µM): 0.301
relative viability (LC-2-ad; first compound 5 µM): 0.893
relative viability (LC-2-ad; first compound 15.81 µM): 0.744
relative viability (LC-2-ad; first compound 50 µM): 0.8
relative viability (LC-2-ad; first compound 158.11 µM): 0.505
relative viability (LC-2-ad; first compound 500 µM): 0.0505
relative viability (LCLC-97TM1; first compound 5 µM): 0.508
relative viability (LCLC-97TM1; first compound 15.81 µM): 0.519
relative viability (LCLC-97TM1; first compound 50 µM): 0.67
relative viability (LCLC-97TM1; first compound 158.11 µM): 0.474
relative viability (LCLC-97TM1; first compound 500 µM): 0.0503
relative viability (LU99A; first compound 5 µM): 0.29
relative viability (LU99A; first compound 15.81 µM): 0.279
relative viability (LU99A; first compound 50 µM): 0.262
relative viability (LU99A; first compound 158.11 µM): 0.24
relative viability (LU99A; first compound 500 µM): 0.0972
relative viability (LXF-289; first compound 5 µM): 0.788
relative viability (LXF-289; first compound 15.81 µM): 0.694
relative viability (LXF-289; first compound 50 µM): 0.733
relative viability (LXF-289; first compound 158.11 µM): 0.404
relative viability (LXF-289; first compound 500 µM): 0.0382
relative viability (NCI-H1993; first compound 5 µM): 0.531
relative viability (NCI-H1993; first compound 15.81 µM): 0.572
relative viability (NCI-H1993; first compound 50 µM): 0.567
relative viability (NCI-H1993; first compound 158.11 µM): 0.46
relative viability (NCI-H1993; first compound 500 µM): 0.375
relative viability (NCI-H2009; first compound 5 µM): 0.599
relative viability (NCI-H2009; first compound 15.81 µM): 0.58
relative viability (NCI-H2009; first compound 50 µM): 0.46
relative viability (NCI-H2009; first compound 158.11 µM): 0.0782
relative viability (NCI-H2009; first compound 500 µM): 0.0289
relative viability (NCI-H2087; first compound 5 µM): 0.501
relative viability (NCI-H2087; first compound 15.81 µM): 0.462
relative viability (NCI-H2087; first compound 50 µM): 0.471
relative viability (NCI-H2087; first compound 158.11 µM): 0.195
relative viability (NCI-H2087; first compound 500 µM): 0.0169
relative viability (NCI-H2126; first compound 5 µM): 0.66
relative viability (NCI-H2126; first compound 15.81 µM): 0.643
relative viability (NCI-H2126; first compound 50 µM): 0.7
relative viability (NCI-H2126; first compound 158.11 µM): 0.448
relative viability (NCI-H2126; first compound 500 µM): 0.63
relative viability (NCI-H2170; first compound 5 µM): 0.718
relative viability (NCI-H2170; first compound 15.81 µM): 0.715
relative viability (NCI-H2170; first compound 50 µM): 0.662
relative viability (NCI-H2170; first compound 158.11 µM): 0.482
relative viability (NCI-H2170; first compound 500 µM): 0.101
relative viability (NCI-H727; first compound 5 µM): 0.554
relative viability (NCI-H727; first compound 15.81 µM): 0.624
relative viability (NCI-H727; first compound 50 µM): 0.461
relative viability (NCI-H727; first compound 158.11 µM): 0.339
relative viability (NCI-H727; first compound 500 µM): 0.334
relative viability (PC-14; first compound 5 µM): 0.736
relative viability (PC-14; first compound 15.81 µM): 0.756
relative viability (PC-14; first compound 50 µM): 0.702
relative viability (PC-14; first compound 158.11 µM): 0.0567
relative viability (PC-14; first compound 500 µM): 0.0096
relative viability (PC-3 [JPC-3]; first compound 5 µM): 0.753
relative viability (PC-3 [JPC-3]; first compound 15.81 µM): 0.658
relative viability (PC-3 [JPC-3]; first compound 50 µM): 0.729
relative viability (PC-3 [JPC-3]; first compound 158.11 µM): 0.517
relative viability (PC-3 [JPC-3]; first compound 500 µM): 0.276
relative viability (SK-MES-1; first compound 5 µM): 0.592
relative viability (SK-MES-1; first compound 15.81 µM): 0.526
relative viability (SK-MES-1; first compound 50 µM): 0.465
relative viability (SK-MES-1; first compound 158.11 µM): 0.12
relative viability (SK-MES-1; first compound 500 µM): 0.0545
